According to publication PMC6407594 (Journal of Enzyme Inhibition and Medicinal Chemistry, 2019):
Read-outs that look alike come from different tables or passages of the source.

How the values were obtained:
murine SMOX [1] = biological target: T1, murine SMOX (Mus musculus, UniProt Q99K82); assay: Inhibition of SMOX activity, spermine as substrate; assay type: biochemical; conditions: for SMOX Kmapp/Km0: 50 μM compound, relative to control
[2] = biological target: PAOX activity in HT22 cells (Mus musculus, UniProt Q8C0L6); assay: PAOX activity in whole HT22 cells; assay type: cell-based
PAOX activity in HT22 cells, sequence (Q8C0L6 whole entry): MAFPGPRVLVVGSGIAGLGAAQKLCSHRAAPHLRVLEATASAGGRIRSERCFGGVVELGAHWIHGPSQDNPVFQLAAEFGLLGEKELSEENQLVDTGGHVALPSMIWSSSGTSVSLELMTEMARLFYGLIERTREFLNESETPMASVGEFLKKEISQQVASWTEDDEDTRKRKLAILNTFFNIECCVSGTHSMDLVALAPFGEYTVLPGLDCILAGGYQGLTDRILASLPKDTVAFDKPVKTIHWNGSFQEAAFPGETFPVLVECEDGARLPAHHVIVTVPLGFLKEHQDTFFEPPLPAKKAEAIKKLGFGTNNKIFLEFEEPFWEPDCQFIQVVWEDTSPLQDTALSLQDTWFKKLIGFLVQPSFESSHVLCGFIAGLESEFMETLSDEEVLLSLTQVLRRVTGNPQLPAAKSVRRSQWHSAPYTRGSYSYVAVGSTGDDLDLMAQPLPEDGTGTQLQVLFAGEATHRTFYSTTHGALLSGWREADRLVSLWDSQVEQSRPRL

murine PAOX = murine PAOX (Mus musculus, UniProt Q8C0L6); assay: Inhibition of PAOX activity, N1AcSPM as substrate; assay type: biochemical; conditions: for PAOX Kmapp/Km0: 50 μM compound, relative to control; for PAOX Kmapp: Km of N1AcSPM in the presence of 50 μM compound
murine PAOX, sequence (Q8C0L6 whole entry): as above

SSAT = conditions: at a concentration of 10 μM; cited from earlier work
[3] = cited from earlier work
ODC = conditions: at a concentration of 10 μM; cited from earlier work
MAOs = assay: Amine oxidase activity in HT22 cell lysate, tyramine as substrate; assay type: biochemical, mouse; conditions: tyramine 1 mM, after pre-incubation with inhibitor
human MAO A = conditions: cited from earlier work
murine SMOX [4] = biological target: T1, murine SMOX; conditions: read-out: SMOX Ki; purified murine SMOX; cited from earlier work
[5] = Km of SPM in the presence of 50 μM compound

T1 sequence (Q99K82 whole entry): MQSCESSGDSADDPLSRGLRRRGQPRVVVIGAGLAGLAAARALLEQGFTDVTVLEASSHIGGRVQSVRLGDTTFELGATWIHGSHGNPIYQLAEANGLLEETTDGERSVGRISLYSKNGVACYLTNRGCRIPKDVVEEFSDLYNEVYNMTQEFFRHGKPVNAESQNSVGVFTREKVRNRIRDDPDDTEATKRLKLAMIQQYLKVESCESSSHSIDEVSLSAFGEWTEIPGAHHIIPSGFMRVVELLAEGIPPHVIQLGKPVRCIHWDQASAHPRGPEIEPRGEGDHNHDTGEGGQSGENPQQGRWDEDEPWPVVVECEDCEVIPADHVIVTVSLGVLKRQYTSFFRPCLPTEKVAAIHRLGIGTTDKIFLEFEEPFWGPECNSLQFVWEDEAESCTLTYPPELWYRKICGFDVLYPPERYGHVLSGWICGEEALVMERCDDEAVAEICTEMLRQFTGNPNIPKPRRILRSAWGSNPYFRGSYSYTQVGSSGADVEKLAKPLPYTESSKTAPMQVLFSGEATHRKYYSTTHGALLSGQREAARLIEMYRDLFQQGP

With `COc1ccccc1CNCCCCCCNCCCCCCCCNCCCCCCNCc1ccccc1OC` [Compound 10, Methoctramine] the Ki (murine SMOX [1]) was 1.2 ± 0.1 µM, the “SMOX Kmapp/Km0” value (murine SMOX [1]) was 18 and the “SMOX Kmapp” value (murine SMOX [1]; [5]) was 8940 ± 1600 µM. The “Mode of inhibition of SMOX” value (murine SMOX [1]; double reciprocal plots) was “competitive inhibitors”, the IC50 [2] was 0.16 ± 0.01 µM and the “IC50 in HT22 cells relative to Ki of recombinant enzyme” value ([2]; IC50/Ki) was “about 16 times”. The Ki (murine PAOX) was 0.01 ± 0.0015 µM, the “Mode of inhibition of PAOX” value (murine PAOX; double reciprocal plots) was “competitive inhibitors” and the “Effect on SSAT” value (SSAT) was “did not significantly affect”. For the same compound, the Cytotoxicity [3] was “low cytotoxicity” and the “Effect on ODC” value (ODC) was “did not significantly affect”.

In the case of `C#CCN(C)Cc1ccccc1` [pargyline], the “Activity with tyramine with respect to control sample” value (MAOs) is reported as 2%.

In the case of `[H]/N=C(\N/C(=N/[H])NCCCCCCNC(=N)NC(=N)Nc1ccc(Cl)cc1)Nc1ccc(Cl)cc1` [Chlorhexidine, chlorhexidine, reference compound], the Ki (murine SMOX [1]) is reported as 3.8 ± 0.2 µM and the “SMOX Kmapp” value (murine SMOX [1]) is reported as 1402 ± 124 µM.

For `NCCCCCCCCCCCCN` [DIADO, 1,12-diaminododecane, reference compound], the “SMOX Kmapp/Km0” value (murine SMOX [1]) is listed as 1.2, the “SMOX Kmapp” value (murine SMOX [1]; [5]) is listed as 600 ± 100 µM and the “Behaviour towards MAO A” value (human MAO A) is listed as “excellent substrate”. The “PAOX Kmapp/Km0” value (murine PAOX) was 9, the “PAOX Kmapp” value (murine PAOX) was 3.40 ± 0.26 µM and the Ki (murine SMOX [4]) was > 1000 µM.

In the case of `COc1ccccc1CN(C)CCCCCC(=O)N(C)CCCCCCCCN(C)C(=O)CCCCCN(C)Cc1ccccc1OC` [Compound 14, Caproctamine], the “SMOX Kmapp/Km0” value (murine SMOX [1]) is reported as 1.21, the “SMOX Kmapp” value (murine SMOX [1]; [5]) is reported as 598 ± 156 µM and the “PAOX Kmapp/Km0” value (murine PAOX) is reported as 112. For the same compound, the “PAOX Kmapp” value (murine PAOX) was 43 ± 9 µM.

For `c1ccc(CNCCCCCCCCCCCCNCc2ccccc2)cc1` [Compound 9, N1,N^12-dibenzyldodecanediamine], the “SMOX Kmapp/Km0” value (murine SMOX [1]) was 2.3, the “SMOX Kmapp” value (murine SMOX [1]; [5]) was 1135 ± 141 µM and the “PAOX Kmapp/Km0” value (murine PAOX) was 108. The “PAOX Kmapp” value (murine PAOX) was 41 ± 221 µM.
